Measured values from US5157052A, “Method for inhibiting IgE production” (priority 1990, dated 1992).

System: IgE
Experiment: Serum IgE response induced by FF1-4D5 + H∂A1 anti-IgD antibodies (ELISA, Assay A / Assay F)
Assay type: in vivo, mouse (Balb/c female)
Settings: 20 μg days 3 and 4
Procedure: Mouse hybridoma cells expressing either FF1-4D5 antibody or H∂A1 antibody are thawed, established in culture, and incubated in mice as ascite tumors. FF1-4D5 antibody is a mouse IgG2a monoclonal antibody of the b allotype that binds the Fd fragment of the ∂ chain of the a allotype IgD which activates β cells through antigen internalization and processing, promoting cognate interactions with antigen-specific T cells (D. K. Goroff et al., J. Immunol. 136: 2382 (1986)). H∂A1 antibody is a mouse IgG2b of the b allotype that binds the Fc fragment of the ∂ chain of the a allotype IgD which activates β cells through crosslinking IgD (I. M. Zitron and B. L. Clevinger, J. Exp. Med. 152: 1135 (1980)). Each antibody is purified from their respective ascites tumor fluid. […] Serum from the injected mice is recovered and the mean concentration of IgE determined.
Serum levels of IgE are determined and IgE levels are shown to be inhibited in a dose dependent manner.
ELISA (enzyme linked immunosorbant assay) measurements of IgE are as follows. About 5 μg of B1E3 antibody in 100 μl borate buffered saline (pH8.5) is added to wells of a NuncImmulon II 96 well plate (DiRuscio & Assoc., St. Louis, Mo.) at 37° C. for 90 minutes. The non-bound antibody is removed by flicking the plate. Unreacted sites on the plastic plate are blocked by adding about 200 μl of a 2% solution of newborn bovine serum (NBS) in PBS at 37° C. for 60 minutes. The standard IgE (or an unknown murine serum sample) is diluted to between about 4 ng/ml-256 ng/ml in Hanks-HS (20 mM Hepes, 2% NBS in Hanks Balanced Salt Solution, Gibco, Grand Island, N.Y.) or to 1/200 to 1/1000 in Hanks-HS respectively. 100 μl of standard (or unknown dilutions) are added in triplicate to the wells of the plate and allowed to absorb to B1E3 antibody at about 37° C. for 2-4 hours. The solution is removed by flicking the plate and each well is washed with about 0.5 ml 0.05% Tween 20-PBS 5 times. About 100 μl of biotinylated R1E4, called the primary antibody, diluted to 200 ng/ml is added to all wells and incubated at about 4° C. overnight. The solution is removed by flicking the plate and washed 5 times as described above. The developing reagent (Avidin and biotin-horse radish peroxidase) is incubated in 2% NBS in PBS at ambient temperature for 30 minutes, according to manufacturer's specifications (Vector Laboratories, Burlingame, Calif.). About 100 μl of developing reagent is added to each well and incubated at ambient temperature for 30 minutes. Colorimetric substrate for the developing reagent (ABTS peroxidase substrate system, KPL, Gaithersburg, Md.) is prepared by mixing equal volumes of solutions A and B and incubating at ambient temperature for 60 minutes. The developing reagent solution is removed by flicking the plate and washed 5 times as described above. About 100 μl of the mixture of substrates is added to each well and incubated at ambient temperature for 60 minutes. The optical density of each well is determined on a BioTek ELISA reader (Biotek Instruments, Inc., Burlington, Vermont) and the absorbance data transferred electronically to a DEC VAX mainframe computer. A standard curve is fitted to the IgE standard optical densities using straight line, linear regression statistical fits. IgE in the unknown serum samples is determined by comparing the optical density of the unknown to the standard curve and multiplying that number by the dilution of serum used in the assay.
Stimulation of a transient serum IgE response in mouse with two monoclonal antibodies directed against IgD is carried out as follows.
Mouse hybridoma cells expressing either FF1-4D5 antibody or H∂Al antibody are thawed, established in culture, and incubated in CB6 F1 female mice as an ascites tumor and each immunoglobulin is purified from the ascites fluid as described above. […]

`CCCCC(C)(O)C/C=C/[C@H]1[C@H](O)CC(=O)[C@@H]1CCCC(C)(C)CCC(=O)OC` (mixture of isomers) [(±) methyl 11α,16-dihydroxy-4,4,16-trimethyl-9-oxoprost-13E-en-1-oate] was tested, and the “de novo IgE synthesis” value (Example 25) was “inhibit de novo IgE synthesis” and the “IgE ± SD” value (Table 14, day 8 (control 6071)) was less than 800 ng/mL.
